Columns and labels:
Assay in all cases: relative viability (nuclei count vs DMSO), 5 days (fraction); higher = more cells survive
[1] = test system: NCI-H441
In short: (§1)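 Nuclei were stained with Hoechst during a one-step fixation (final 0.05% Triton X-100, 1% formaldehyde, 1 ug/ml Hoechst) carried out 5 days after dosing, then counted on 4× images. The cells, lung cancer lines in 1536-well plates, had been dosed by pin tool the day after seeding with one drug alone or a fixed anchor-drug dose plus five library-drug doses (not always all listed) in √10 steps. Relative viability is the nuclei count in treated wells divided by that in vehicle wells, and each value is the median of duplicate plates.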

[2] = test system: NCI-H322M
In short: as §1

[3] = test system: NCI-H1993
In short: as §1

[4] = test system: CAL-12T
In short: as §1

[5] = test system: UMC-11
In short: as §1

[6] = test system: NCI-H358
In short: as §1

[7] = test system: COR-L 105
In short: as §1

[8] = test system: ABC-1
In short: as §1

[9] = test system: EPLC-272H
In short: as §1

[10] = test system: NCI-H2085
In short: as §1

[11] = test system: NCI-H522
In short: as §1

[12] = test system: EMC-BAC-2
In short: as §1

[13] = test system: HCC-78
In short: as §1

[14] = test system: HOP-62
In short: as §1

[15] = test system: NCI-H1666
In short: as §1

[16] = test system: NCI-H2023
In short: as §1

[17] = test system: ChaGo-K-1
In short: as §1

[18] = test system: HCC-15
In short: as §1

[19] = test system: LXF-289
In short: as §1

[20] = test system: NCI-H2126
In short: as §1

[21] = test system: NCI-H1915
In short: as §1

[22] = test system: NCI-H1755
In short: as §1

[23] = test system: NCI-H1975
In short: as §1

[24] = test system: NCI-H3122
In short: as §1

In the case of `Clc1ccc(Nc2nnc(Cc3ccncc3)c3ccccc23)cc1` [Vatalanib] + O=C(CCCCCCC(=O)Nc1ccccc1)NO [Vorinostat] (partner 1 µM), the relative viability ([1]; first compound 0.04 µM) was 0.907, the relative viability ([1]; first compound 0.1265 µM) was 0.589 and the relative viability ([1]; first compound 0.4 µM) was 0.704. The relative viability ([1]; first compound 1.265 µM) was 0.776, the relative viability ([1]; first compound 4 µM) was 0.81 and the relative viability ([2]; first compound 0.04 µM) was 0.898. For the same compound, the relative viability ([2]; first compound 0.1265 µM) was 0.867, the relative viability ([2]; first compound 0.4 µM) was 0.825 and the relative viability ([2]; first compound 4 µM) was 0.899. It also gave a relative viability ([3]; first compound 0.04 µM) of 0.728, a relative viability ([3]; first compound 0.1265 µM) of 0.795 and a relative viability ([3]; first compound 0.4 µM) of 0.806. It also gave a relative viability ([3]; first compound 1.265 µM) of 0.709, a relative viability ([3]; first compound 4 µM) of 0.726 and a relative viability ([4]; first compound 0.04 µM) of 0.872. For the same compound, the relative viability ([4]; first compound 0.1265 µM) was 0.714, the relative viability ([4]; first compound 0.4 µM) was 0.734 and the relative viability ([4]; first compound 1.265 µM) was 0.737. For the same compound, the relative viability ([4]; first compound 4 µM) was 0.784, the relative viability ([5]; first compound 0.04 µM) was 0.361 and the relative viability ([5]; first compound 0.1265 µM) was 0.469. The relative viability ([5]; first compound 0.4 µM) was 0.384, the relative viability ([5]; first compound 1.265 µM) was 0.35 and the relative viability ([5]; first compound 4 µM) was 0.415. The relative viability ([6]; first compound 0.04 µM) was 0.683, the relative viability ([6]; first compound 0.1265 µM) was 0.719 and the relative viability ([6]; first compound 0.4 µM) was 0.686. The relative viability ([6]; first compound 1.265 µM) was 0.713, the relative viability ([6]; first compound 4 µM) was 0.632 and the relative viability ([7]; first compound 0.04 µM) was 0.846. It also gave a relative viability ([7]; first compound 0.1265 µM) of 0.806, a relative viability ([7]; first compound 0.4 µM) of 0.829 and a relative viability ([7]; first compound 1.265 µM) of 0.905. It also gave a relative viability ([7]; first compound 4 µM) of 0.794, a relative viability ([8]; first compound 0.04 µM) of 1.06 and a relative viability ([8]; first compound 0.1265 µM) of 0.863. It also gave a relative viability ([8]; first compound 0.4 µM) of 1.01, a relative viability ([8]; first compound 4 µM) of 1.39 and a relative viability ([9]; first compound 0.04 µM) of 0.438. The relative viability ([9]; first compound 0.1265 µM) was 0.702, the relative viability ([9]; first compound 0.4 µM) was 0.499 and the relative viability ([9]; first compound 1.265 µM) was 0.617. The relative viability ([9]; first compound 4 µM) was 0.561, the relative viability ([10]; first compound 0.04 µM) was 0.868 and the relative viability ([10]; first compound 0.1265 µM) was 0.796. It also gave a relative viability ([10]; first compound 0.4 µM) of 0.852, a relative viability ([10]; first compound 1.265 µM) of 0.747 and a relative viability ([10]; first compound 4 µM) of 0.702. It also gave a relative viability ([11]; first compound 0.04 µM) of 0.634, a relative viability ([11]; first compound 0.1265 µM) of 0.898 and a relative viability ([11]; first compound 0.4 µM) of 1.06. For the same compound, the relative viability ([11]; first compound 1.265 µM) was 1, the relative viability ([11]; first compound 4 µM) was 0.895 and the relative viability ([12]; first compound 0.04 µM) was 0.448. For the same compound, the relative viability ([12]; first compound 0.1265 µM) was 0.414, the relative viability ([12]; first compound 0.4 µM) was 0.392 and the relative viability ([12]; first compound 4 µM) was 0.457. It also gave a relative viability ([13]; first compound 0.04 µM) of 0.425, a relative viability ([13]; first compound 0.1265 µM) of 0.478 and a relative viability ([13]; first compound 0.4 µM) of 0.49. For the same compound, the relative viability ([13]; first compound 1.265 µM) was 0.465, the relative viability ([13]; first compound 4 µM) was 0.424 and the relative viability ([14]; first compound 0.04 µM) was 0.6. The relative viability ([14]; first compound 0.1265 µM) was 0.557, the relative viability ([14]; first compound 0.4 µM) was 0.758 and the relative viability ([14]; first compound 1.265 µM) was 0.597. The relative viability ([14]; first compound 4 µM) was 0.642, the relative viability ([15]; first compound 0.04 µM) was 0.997 and the relative viability ([15]; first compound 0.1265 µM) was 1.02. For the same compound, the relative viability ([15]; first compound 0.4 µM) was 1.03, the relative viability ([15]; first compound 1.265 µM) was 1.04 and the relative viability ([15]; first compound 4 µM) was 0.908. It also gave a relative viability ([16]; first compound 0.04 µM) of 0.674, a relative viability ([16]; first compound 0.1265 µM) of 0.688 and a relative viability ([16]; first compound 0.4 µM) of 0.716. It also gave a relative viability ([16]; first compound 1.265 µM) of 0.5, a relative viability ([16]; first compound 4 µM) of 0.628 and a relative viability ([17]; first compound 0.04 µM) of 0.787. For the same compound, the relative viability ([17]; first compound 0.1265 µM) was 0.758, the relative viability ([17]; first compound 0.4 µM) was 0.848 and the relative viability ([17]; first compound 1.265 µM) was 0.766. For the same compound, the relative viability ([17]; first compound 4 µM) was 0.788, the relative viability ([18]; first compound 0.04 µM) was 0.853 and the relative viability ([18]; first compound 0.1265 µM) was 0.836. It also gave a relative viability ([18]; first compound 0.4 µM) of 0.964, a relative viability ([18]; first compound 1.265 µM) of 0.801 and a relative viability ([18]; first compound 4 µM) of 0.863. The relative viability ([19]; first compound 0.04 µM) was 0.844, the relative viability ([19]; first compound 0.1265 µM) was 0.832 and the relative viability ([19]; first compound 0.4 µM) was 0.801. For the same compound, the relative viability ([19]; first compound 1.265 µM) was 0.712, the relative viability ([19]; first compound 4 µM) was 0.75 and the relative viability ([20]; first compound 0.04 µM) was 0.704. It also gave a relative viability ([20]; first compound 0.1265 µM) of 0.835, a relative viability ([20]; first compound 0.4 µM) of 0.837 and a relative viability ([20]; first compound 1.265 µM) of 0.766. For the same compound, the relative viability ([20]; first compound 4 µM) was 0.691, the relative viability ([21]; first compound 0.04 µM) was 0.507 and the relative viability ([21]; first compound 0.1265 µM) was 0.544. For the same compound, the relative viability ([21]; first compound 0.4 µM) was 0.587, the relative viability ([21]; first compound 1.265 µM) was 0.482 and the relative viability ([21]; first compound 4 µM) was 0.518. For the same compound, the relative viability ([22]; first compound 0.04 µM) was 0.799, the relative viability ([22]; first compound 0.1265 µM) was 0.891 and the relative viability ([22]; first compound 0.4 µM) was 0.757. For the same compound, the relative viability ([22]; first compound 1.265 µM) was 0.759, the relative viability ([22]; first compound 4 µM) was 0.694 and the relative viability ([23]; first compound 0.04 µM) was 0.674. The relative viability ([23]; first compound 0.1265 µM) was 0.691, the relative viability ([23]; first compound 0.4 µM) was 0.726 and the relative viability ([23]; first compound 1.265 µM) was 0.66. It also gave a relative viability ([23]; first compound 4 µM) of 0.71, a relative viability ([24]; first compound 0.04 µM) of 1.27 and a relative viability ([24]; first compound 0.1265 µM) of 0.99. For the same compound, the relative viability ([24]; first compound 0.4 µM) was 0.96, the relative viability ([24]; first compound 1.265 µM) was 1.01 and the relative viability ([24]; first compound 4 µM) was 1.12.

— the supplement of paper PMC10307832
